Marks after values point to notes of the source that are not given here.
What was measured:
[1] = Carcass characteristics of steers, Composition versus Monensin (Example 3); assay type: in vivo; details: Monensin 223 mg/head/day, Composition 500 ppm in total feed, treatments differ P < 0.05
Description: The two groups were treated with Monensin (223 mg/head/day) and the Composition (500 ppm in total feed). Monensin is the antibiotic used in the industry as a standard to affect microbial populations in the rumen of the animals. The change in microbial populations in the rumen shifts the fermentation end products, which results in an improvement in the energy efficiency of the animal. By comparing the Composition to the industry standard, the effects due to changes in microbial populations can be deleted. Therefore, if differences were found between Monensin treated animals and the Composition treated animals, those differences would not arise from the antimicrobial effects, as both products inhibit the same type of bacteria (gram positive). The Composition was 40% cashew nut shell liquid, 12% castor oil and 48% expanded vermiculite. Dressing percent is the percentage of the carcass in relation to the total weight of the animal. Carcass quality grade goes from 1 to 9 to indicate, in increasing order, the amount of intramuscular fat. Meats with higher levels of intramuscular fat are more tender and, therefore, more expensive. Also, as the amount of energy found per unit of fat is twice as much as the amount of energy found per unit of carbohydrate and […], meats with more intramuscular fat are more energy dense than […]. […]

[2] = rats, supplemented vs non-supplemented animals; cited from earlier work

Compound: CC[C@@]1([C@@H]2O[C@@H]([C@H]3O[C@@](O)(CO)[C@H](C)C[C@@H]3C)C[C@@H]2C)CC[C@H]([C@]2(C)CC[C@]3(C[C@H](O)[C@@H](C)[C@@H]([C@@H](C)[C@@H](OC)[C@H](C)C(=O)O)O3)O2)O1 [Monensin]
- Carcass quality grade ([1]; grade from 1 to 9, increasing intramuscular fat, steers fed from 322 kg to 617 kg): 3.18^a
- Dressing percent (percentage of the carcass in relation to the total weight of the animal) ([1]; steers fed from 322 kg to 617 kg live weight): 60^a percent

Compound: CCCCCCCCCCCCCCCc1cccc(O)c1C(=O)O [anacardic acid]
- effects on feed efficiency [2]: no differences
